Values after ≈ are worked out from the molar mass of the structure shown.
How the values were obtained:
MDSCs = experiment: Inhibition of MDSC chemotaxis (Transwell, Hepa1-6 tumor-conditioned medium); format: cell-based, mice; conditions: 12 h treatment, 24 h Transwell
Method: Hepa1-6 mouse hepatocellular carcinoma cells were uniformly seeded into 6-well plates. After cells reached confluence, supernatant was aspirated, and 1-1.5 mL fresh medium was added to each well. Following 24 h culture, supernatant was collected, centrifuged at 1600 rpm for 5 min, aspirated, and filtered through a 0.22 µm membrane to obtain tumor-conditioned medium for subsequent use. Euthanize mice by cervical dislocation and immerse in 75% ethanol solution for 5 min. Under sterile conditions, remove the tibia, cut both ends of the bone, and aspirate the bone marrow into a 1 mL syringe. Repeat flushing into a 15 mL centrifuge tube. Centrifuge at 1600 rpm for 5 min to collect bone marrow cells. Wash twice with 1×PBS. Resuspend cells in complete RPMI 1640 medium containing cytokines GM-CSF (10 ng/mL) and IL-4 (10 ng/mL) to stimulate differentiation into MDSCs. Count cells, adjust density to 1×10^6 cells/mL, and uniformly seed into 24-well plates at 300 µL per well. […] Centrifuge at 1600 rpm for 5 min, remove supernatant, resuspend cells in 300 µL fresh medium, and place into Transwell chambers. Add 600 µL normal medium (control group) or tumor-conditioned medium (model group) to the lower chamber. Co-culture for 24 h.

[1] = gastric fluid, within 8 hours; cited from earlier work
4T1 cells = format: in vivo, BALB/c mice
Method: (§1) 4T1 cells were cultured and expanded in vitro. […] A 100 µL aliquot of this suspension was injected subcutaneously into the left forelimb axilla of female BALB/c mice. […] Daily oral administration was performed for 3 weeks. During the treatment period, mouse body weight and tumor diameter were measured daily. At the end of the experiment, mice were euthanized by cervical dislocation, and tumors were removed for weighing. Tumor volume (TV) was calculated using the formula: TV = 1/2 × a × b^2, where a represents the longest diameter of the tumor and b represents the shortest diameter.

[2] = in vivo; cited from earlier work
MDSCs; T cells = test system: MDSCs; T cells; set-up: species or system BALB/c mice; conditions: mouse, in vivo, po
Method: as §1, with “H22” for “4T1”, “male” for “female”, “2” for “3”
Once all tumors were dissected, nail-sized tumor pieces were transferred to 1.5 mL Eppendorf tubes and minced with scissors. […] After digestion, pass the mixture through a 200-mesh sieve to obtain the tumor cell suspension. […] Position the spleen on a 200-mesh cell strainer. Gently press the spleen using a 10 mL syringe needle. […] Transfer the washed splenocyte suspension into a 15 mL centrifuge tube. Centrifuge at 1600 rpm for 5 min to collect cells. Wash once with 1×PBS. Add 3 mL red blood cell lysis buffer (diluted with ddH2O) to each tube and incubate for 5 min. After lysis, add 10 mL 1×PBS to each tube to terminate lysis. Centrifuge at 1600 rpm for 5 min. Add 1 mL 1×PBS to each 15 mL centrifuge tube, transfer to 1.5 mL EP tubes, and centrifuge at 1600 rpm for 5 min. Add 1 mL 1×PBS to each tube containing stained tumor cells and lysed spleen cells for one wash, centrifuge at 1600 rpm for 5 min, and remove the supernatant.
Once all tumors were dissected, nail-sized tumor pieces were transferred to 1.5 mL Eppendorf tubes and minced with scissors. […] After digestion, pass the mixture through a 200-mesh sieve to obtain the tumor cell suspension. Centrifuge the resulting tumor suspension at 1600 rpm for 5 min, aspirate the supernatant, resuspend cells in 1 mL of 1×PBS per tube. […] Position the spleen on a 200-mesh cell strainer. Gently press the spleen using a 10 mL syringe needle. […] Transfer the splenocyte suspension into a 15 mL centrifuge tube. Centrifuge at 1600 rpm for 5 min to collect cells. Wash once with 1×PBS. Add 3 mL red blood cell lysis buffer (diluted with ddH2O) to each tube and incubate for 5 min. After lysis, add 10 mL 1×PBS to each tube to terminate lysis. Centrifuge at 1600 rpm for 5 min.

Hepa1-6 cells = experiment: Hepa1-6 mouse hepatocellular carcinoma subcutaneous xenograft model; format: in vivo, C57BL/6 mice
Method: Hepa1-6 cells were cultured and expanded in vitro. An appropriate amount of cells in the logarithmic growth phase was resuspended in a mixture of serum-free DMEM medium and Matrigel (1:1). under aseptic conditions to prepare a 2.5×10^6/100 µL cell suspension. A 100 µL aliquot of this suspension was injected subcutaneously into the left forearm axilla of male C57BL/6 mice. […] Daily oral administration was performed for 2 weeks. During the treatment period, mouse body weight and tumor diameter were measured daily. At the end of the experiment, mice were euthanized by cervical dislocation, and tumors were removed for weighing. Tumor volume (TV) was calculated using the formula: TV = 1/2 × a × b^2, where a represents the longest diameter of the tumor and b represents the shortest diameter.

CCR2 mRNA = CCR2 mRNA level in MDSCs (PCR); format: cell-based, mice; conditions: CCR2 mRNA levels in MDSCs, 2 h
Method: Mice were euthanized by cervical dislocation and immersed in 75% ethanol solution for 5 min. Under sterile conditions, the tibia was removed, both ends of the bone were cut, and bone marrow was repeatedly flushed into a 15 mL centrifuge tube using a 1 mL syringe filled with culture medium. Centrifuge at 1600 rpm for 5 min to collect bone marrow cells. Wash twice with 1×PBS, then resuspend in RPMI 1640 complete medium containing GM-CSF (10 ng/mL) + IL-4 (10 ng/mL) and transfer to a cell culture dish to stimulate differentiation of bone marrow cells into MDSCs. Count cells and adjust density to 1 × 10^6 cells/mL in complete medium. Seed cells uniformly into 6-well plates at 2 mL per well. […] After incubation, collect cells into centrifuge tubes, centrifuge at 1600 rpm for 5 min, wash once with 1×PBS, and add 500 µL RNA extraction reagent to each tube. After centrifugation to obtain the pellet, add 20 µL DEPC-treated water to each tube to dissolve the pellet. Determine RNA concentration and reverse transcribe to cDNA. Add the cDNA, primers, and reverse transcriptase to a 96-well plate. Centrifuge at 4000 rpm for 5 min, then place in a PCR instrument for detection.

CT26 cells = format: in vivo, BALB/c mice
[3] = molecular target: farnesyltransferase (FTase) (Homo sapiens, UniProt P49354+P49356); conditions: in vitro; cited from earlier work
Chain of farnesyltransferase (FTase) (P49356 whole entry, one chain of several): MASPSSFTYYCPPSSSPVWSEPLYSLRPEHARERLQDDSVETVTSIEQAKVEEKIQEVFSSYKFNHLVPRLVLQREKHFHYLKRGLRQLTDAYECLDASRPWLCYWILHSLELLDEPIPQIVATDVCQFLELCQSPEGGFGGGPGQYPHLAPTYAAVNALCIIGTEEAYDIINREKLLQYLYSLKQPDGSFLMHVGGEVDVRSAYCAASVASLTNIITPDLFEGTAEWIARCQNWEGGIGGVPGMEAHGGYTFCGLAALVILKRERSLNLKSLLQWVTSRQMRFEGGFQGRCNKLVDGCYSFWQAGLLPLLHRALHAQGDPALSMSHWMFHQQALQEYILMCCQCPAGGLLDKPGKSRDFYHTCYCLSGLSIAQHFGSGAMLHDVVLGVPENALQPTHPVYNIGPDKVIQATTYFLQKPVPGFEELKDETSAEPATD

H22 cells = test system: H22 cells; set-up: species or system BALB/c mice; conditions: mouse, in vivo, po
Method: as §1, with “H22” for “4T1”, “male” for “female”, “2” for “3”

tumor cells = conditions: in vitro cell models; cited from earlier work
Hepa1-6 = conditions: 30 mg/kg intraperitoneal injection, 14 consecutive days; cited from earlier work
physchem = conditions: deionized water, 37 °C, thermodynamic from solid
[4] = Hepa1-6, oral 40 µmol/kg/d, 2 weeks

SMILES: C=C1C(=O)O[C@@H]2[C@H]3C(C)=CC[C@@]34O[C@@]4(C)CC[C@@H]12 [Arg, Arglabin]
- Suppression Rate (%) (MDSCs; 1 µM): 42.5%
- Suppression Rate (%) (MDSCs; 10 µM): 73.2%
- degradation rate [1]: 50%
- antitumor effects (4T1 cells; 4T1, oral 40 µmol/kg/day, 3 weeks): no significant antitumor effects
- Tumor Inhibition Rate (%) (4T1 cells; mouse, in vivo, po): 12.87%
- Tumor weight (4T1 cells; mouse, in vivo, po): 1.58 ± 0.21 g
- oral bioavailability [2]: 5%
- Spleen MDSCs (%) (MDSCs; T cells): 27.89±4.72 %
- Spleen T cells (%) (MDSCs; T cells): 27.02±4.07%
- Tumor T cells(%) (MDSCs; T cells): 17.72±6.12 %
- Tumor-associated MDSCs (%) (MDSCs; T cells): 27.0±7.93 %
- Tumor Inhibition Rate (%) (Hepa1-6 cells; mouse, in vivo, po): 95.86%
- Tumor weight (Hepa1-6 cells; mouse, in vivo, po): 0.04 ± 0.03 g
- CCR2 mRNA suppression rate in MDSCs (%) (CCR2 mRNA; 1 µM): 22.3%
- CCR2 mRNA suppression rate in MDSCs (%) (CCR2 mRNA; 10 µM): 69.7%
- antitumor effects (CT26 cells; CT26, oral 80 µmol/kg/day, 3 weeks): tumor-inhibiting effects
- Tumor Inhibition Rate (%) (CT26 cells; mouse, in vivo, po): 34.94%
- Tumor weight (CT26 cells; mouse, in vivo, po): 5.31 ± 0.51 g
- IC50 [3]: micromolar level
- Tumor Suppression Rate (%) (H22 cells): 39.43%
- Tumor weight (H22 cells): 5.18 ± 0.61 g

SMILES: C=C1C(=O)O[C@H]2[C@H]1CCC(C)=C1CC[C@@](C)(O)[C@@H]12 [MCL, Micheliolide]
- IC50 (tumor cells): micromolar range
- Tumor Inhibition Rate (%) (Hepa1-6 cells; [4]): 70.52%
- Tumor weight (Hepa1-6 cells; [4]): 0.27 ± 0.24 g
- tumor weight inhibition rate (Hepa1-6): 50%
- solubility (physchem): 62 µg/mL (≈ 250 µM)
